Data set [1] is described as follows: Measurement of the entrapment ratio (ultracentrifugation, HPLC of active compound in the filtrate). Type of data set: physicochemical. To be noted: E7107, internal phase 250 mM HP-β-cyclodextrin/100 mM citric acid (pH=5.5). The method, then:
The entrapment ratio was determined as described below.
The entrapment ratio was calculated using the formula below.

In data set [2] the test system is WiDr, human colon cancer cell line. Nature of the data set: Therapeutic effect of E7107 on tumor growth in WiDr cancer-bearing nude mice (Embodiment 10). To be noted: 2.5 mg/kg single dose into caudal vein; 5 days after administration. Format: in vivo. The method, then: (§1) WiDr (obtained from Dainippon Sumitomo Pharma Co., Ltd.), which is a human colon cancer cell line, was cultured and grown in a 10% bovine fetal serum-containing RPMI1640 culture. The cells were separated from the flask using 0.05% Trypsin-EDTA solution and collected. After washing with PBS, the cells were suspended in Hank's Balanced Salt Solution (manufactured by GIBCO) so as to be 5×10^7 cells/mL and kept on ice. 100 μL of cell suspension liquid was subcutaneously injected in the right ventral portion of 6- to 8-week old nude mice (CLEA Japan, Inc.). Each mouse was observed daily, and notes were made appropriately in cases where abnormal conditions were found. Calipers were used to measure the tumor size over time, and the tumor size was calculated based on the calculation formula: major axis×(minor axis squared)÷2. Moreover, the mouse body weight was also measured over time. At the point when the tumor size was 100 to 200 mm^3, the mice were separated into groups such that the average values of the tumor sizes and the mouse body weights were uniform among the test groups (five mice per test group). […]
(§2) The tumor-growth suppression effect and the body weight loss 5 days after administration were statistically analyzed by a parametric method. […]

Data set [3] can be described thus: Body weight of WiDr cancer-bearing nude mice (Embodiment 10). The note with it: average body weight; 2.5 mg/kg single dose; 5 days after administration. Format: in vivo. Here is the method:
as §1, §2

Data set [4] can be described thus: Eribulin mesylate blood plasma and tumor tissue PK in LOX cancer-bearing mice (Embodiment 11). The note with it: female, NU/NU nude, mouse, iv. Type of data set: in vivo. Here is the method: A blood sample was taken and tumor tissue extraction was carried out with a cardiac puncture at fixed periods after administration (15 minutes, 30 minutes, 1, 2, 4, 8, 12, 24, 36, and 48 hours) (n=3). The blood was sampled in a test tube containing heparin, and within 30 minutes of the sampling, the blood was separated by centrifuging at 1,500×g for 10 minutes at 4° C. to obtain the blood plasma. All of the tumor tissue was extracted, washed with PBS, and wiped with water-absorbent paper, and then the tissue weight was immediately weighed. The tissue was placed in a test tube and cooled in ice water, and then stored at −80° C. until analysis was carried out.
The PK parameters were calculated using non-compartment model analysis software (WinNonlin version 5.0.1).

Data set [5] deals with WiDr, human colon cancer cell line. Nature of the data set: Antitumor activity of eribulin mesylate in WiDr cancer-bearing nude mice (Embodiment 12, FIG. 5). Format: in vivo. The note with it: 2 mg/kg; caudal vein, 2 times in 7-day intervals; five mice per group. Here is the method:
WiDr, which is a human colon cancer cell line, was cultured and grown in a 10% bovine fetal serum-containing RPMI1640 culture. The cells were separated from the flask using 0.05% Trypsin-EDTA solution and collected. After washing with PBS, the cells were suspended in Hank's Balanced Salt Solution (manufactured by Gibco BRL Co. Ltd.) so as to be 5×10^7 cells/mL and kept on ice. 0.1 mL of cell suspension liquid were subcutaneously injected in the right ventral portion of 7-week old nude mice (Charles River Laboratories Japan, Inc.). Each mouse was observed daily, and notes were made appropriately in cases where abnormal conditions were found. Calipers were used to measure the tumor size over time, and the tumor size was calculated based on the calculation formula: major axis×(minor axis squared)÷2. At the point when the tumor size was 100 to 200 mm^3, the mice were separated into groups such that the average values of the tumor sizes and the mouse body weights were uniform among the test groups (five mice per test group), and the drug was administered into the caudal vein (0.2 mL/20 g; 2 times in 7-day intervals).

Data set [6] has as its system FaDu, human pharyngeal squamous cell carcinoma line. Nature of the data set: Antitumor activity of eribulin mesylate in FaDu cancer-bearing nude mice (Embodiment 13, FIG. 6). Format: in vivo. The note with it: 4.0 mg/kg free bodies, caudal vein, 3 times in 7-day intervals. The method, then:
FaDu (obtained from the American Type Culture Collection), which is a human pharyngeal squamous cell carcinoma line, was cultured and grown in a 10% bovine fetal serum-containing MEM culture. The cells were separated from the flask using 0.05% Trypsin-EDTA solution and collected. After washing with PBS, the cells were suspended in PBS so as to be 5×10^7 cells/mL and then kept on ice. 0.1 mL of cell suspension liquid were subcutaneously injected in the right ventral portion of 6-week old nude mice (Charles River Laboratories Japan, Inc.). Each mouse was observed daily, and notes made appropriately in cases where abnormal conditions were found. Calipers were used to measure the tumor size over time, and the tumor size was calculated based on the calculation formula: major axis×(minor axis squared)÷2. At the point when the tumor size was 100 to 200 mm^3, the mice were separated into groups such that the average values of the tumor sizes and the body weights of mice were uniform among the test groups (five mice per test group), and the drug was administered into the caudal vein (0.2 mL/20 g; 3 times in 7-day intervals).

For data set [7] the test system is unchanged. Nature of the data set: Antitumor activity of eribulin mesylate in FaDu cancer-bearing nude mice (Embodiment 14, FIG. 7). Format: in vivo. To be noted: 4.0 mg/kg free bodies, caudal vein, 3 times in 7-day intervals. Here is the method:
FaDu (obtained from the American Type Culture Collection), which is a human pharyngeal squamous cell carcinoma line, was cultured and grown in a 10% bovine fetal serum-containing MEM culture. The cells were separated from the flask using 0.05% Trypsin-EDTA solution and collected. After washing with PBS, the cells were suspended in PBS so as to be 5×10^7 cells/mL and kept on ice. 0.1 mL of cell suspension liquid was subcutaneously injected in the right ventral portion of 6-week old nude mice (Charles River Laboratories Japan, Inc.). Each mouse was observed daily, and notes were made appropriately in cases where abnormal conditions were found. Calipers were used to measure the tumor size over time, and the tumor size was calculated based on the calculation formula: major axis×(minor axis squared)÷2. At the point when the tumor size was 100 to 200 mm^3, the mice were separated into groups such that the average values of the tumor sizes and the mouse body weights were uniform among the test groups (five mice per test group), and the drug was administered into the caudal vein (0.2 mL/20 g; 3 times in 7-day intervals).

Data set [8] relates to ACHN, human renal cancer cell line. Nature of the data set: Antitumor activity of eribulin mesylate in ACHN cancer-bearing nude mice (Embodiment 15, FIG. 8). The note with it: free body 2 mg/kg, 3 mg/kg and 4 mg/kg, 3 times in 7-day intervals, 45 days after the start of administration. Type of data set: in vivo. Here is the method:
ACHN (obtained from the American Type Culture Collection), which is a human renal cancer cell line, was cultured and grown in a 10% bovine fetal serum-containing MEM culture. The cells were separated from the flask using 0.05% Trypsin-EDTA solution and collected. After washing with PBS, the cells were suspended in PBS so as to be 5×10^7 cells/mL and then kept on ice. 0.1 mL of cell suspension liquid was subcutaneously injected in the right ventral portion of 6-week old nude mice (Charles River Laboratories Japan, Inc.). Each mouse was observed daily, and notes were made appropriately in cases where abnormal conditions were found. Calipers were used to measure the tumor size over time, and the tumor size was calculated based on the calculation formula: major axis×(minor axis squared)÷2. At the point when the tumor size was 150 to 200 mm^3, the mice were separated into groups such that the average values of the tumor sizes and the mouse body weights were uniform among the test groups (five mice per test group), and the drug was administered into the caudal vein (0.2 mL/20 g; 3 times in 7-day intervals).

Data set [9] is described as follows: Maximum tolerance dose of eribulin mesylate free bodies. Type of data set: in vivo. The note with it: free body of eribulin mesylate, caudal vein, nude mice.
For data set [10] the following is noted: complex with HP-β-cyclodextrin, Non-patent Literature 6, cited from earlier work.
Where [11] appears, read: blood plasma, 1.0 mg/kg into caudal vein, LOX cancer-bearing mice.
[12] abbreviates: tumor tissue, 1.0 mg/kg into caudal vein, LOX cancer-bearing mice.

Structures can show the parent of a compound that is named as a salt. Where two headings read alike, the source gives them in different places.

These results are taken from patent publication US9968583B2, “Method of manufacture of liposome composition” (EISAI R & D MANAGEMENT CO., LTD., priority 2009, dated 2018).

With `CCC(O)C(C)C1OC1CC(C)(O)/C=C/C=C(\C)C1OC(=O)CC(O)CCC(C)(O)C(OC(=O)N2CCN(C3CCCCCC3)CC2)/C=C/C1C` (stereo not drawn) [E7107, (8E,12E,14E)-7-{(4-cycloheptylpiperazin-1-yl)carbonyl}oxy-3,6,16,21-tetrahydroxy-6,10,12,16,20-pentamethyl-18,19-epoxytricosa-8,12,14-trien-11-olide], the “Entrapment ratio (%)” value in data set [1] (5° C., 5 minutes) came out at 0%; in data set [1] (5° C., 1 hour) it was 0%; in data set [1] (5° C., 6 hours), 0%; in [1] (20° C., 1 minute), 0%; in [1] (20° C., 5 minutes), 0%; in [1] (20° C., 1 hour), 13.1%. In addition, the “Entrapment ratio (%)” value in [1] (20° C., 6 hours) was 49.6%; in data set [1] (40° C., 1 minute) it was 4.1%; in data set [1] (40° C., 5 minutes), 87.5%; in [1] (50° C., 1 minute), 56.8%; in data set [1] (60° C., 1 minute), 99.2%. The “Tumor (mm^3)” value in data set [2] was 204.34 mm^3. Besides, in data set [3], the “Body weight” value is listed as 20.32 g.
In the case of `C=C1C[C@@H]2CC[C@@]34C[C@H]5O[C@H]6[C@@H](O3)[C@H]3O[C@H](CC[C@@H]3O[C@H]6[C@H]5O4)CC(=O)C[C@@H]3[C@@H](OC)[C@@H](C[C@H](O)CN)O[C@H]3C[C@H]3O[C@@H](CC[C@@H]1O2)C[C@@H](C)C3=C` [eribulin mesylate], in [4] (setting [11]), the MRT – broadly, the average time that molecules of a dose stay in the body – came out at 3.3 h; the clearance (in general, a measure of how efficiently the substance is removed, as volume per time) was 40.3 mL/min/kg; the half-life (in general, how long it takes for the measured level to halve) is 3.7 h. In addition, the Vd in data set [4] (blood plasma, 1.0 mg/kg into caudal vein, LOX cancer-bearing mice, read-out: Vss) is 8.03 L/kg. Moreover, in data set [4] (setting [12]), the AUC(0-inf) (usually the area under the concentration-time curve extrapolated to infinity) worked out at 6290 ng·h/mL; the area under the curve AUC(0-t) – broadly, the area under the concentration-time curve up to a stated or last time point – was 4650 ng·h/mL; the peak concentration (Cmax) – broadly, the maximum level reached in the sampled fluid or tissue – was 323 ng/g; the mean residence time (MRT) was 27.7 h. Moreover, in data set [4] (setting [12]), the time to peak (Tmax) – broadly, the time at which the peak concentration occurs – was 0.25 h and the half-life is 17.8 h. Moreover, in data set [4] (plasma, 1 mg/kg), the AUC(0-inf) came to 365 ng·h/mL and the AUC(0-t) turned out to be 363 ng·h/mL. For the same compound, in [5], the “Complete disappearance of the tumor / mice completely healed” value was 2 out of 5. The Tumor-reducing effect result in data set [6] is on record as “tumor-reducing effect was not obtained”. The Tumor-reducing effect result in data set [7] is “tumor-reducing effect was not obtained”. Moreover, the “Tumor volume versus the untreated group” value in [8] was “no significant difference”. The Maximum tolerance dose in [9] amounted to 4 mg/kg. The same compound came in with a Maximum tolerance dose in data set [9] (listed as free bodies) of 4.0 mg/kg.
As for `CC(C(=O)O)c1cccc(C(=O)c2ccccc2)c1` (stereo not drawn) [ketoprofen], the figures for the Entrapment ratio entry in data set [10] (MLVs (multilamellar vesicles)) and in data set [10] (SUVs (small unilamellar vesicles)) were “approximately 75%” and “approximately 55%”, respectively.
